In one experiment the target is T1, human orexin-2 receptor (Homo sapiens, UniProt O43614).
T1 construct: expressed in transfected cells; host or cells: CHO cells (selected with G418)
T1 sequence (O43614 1-444): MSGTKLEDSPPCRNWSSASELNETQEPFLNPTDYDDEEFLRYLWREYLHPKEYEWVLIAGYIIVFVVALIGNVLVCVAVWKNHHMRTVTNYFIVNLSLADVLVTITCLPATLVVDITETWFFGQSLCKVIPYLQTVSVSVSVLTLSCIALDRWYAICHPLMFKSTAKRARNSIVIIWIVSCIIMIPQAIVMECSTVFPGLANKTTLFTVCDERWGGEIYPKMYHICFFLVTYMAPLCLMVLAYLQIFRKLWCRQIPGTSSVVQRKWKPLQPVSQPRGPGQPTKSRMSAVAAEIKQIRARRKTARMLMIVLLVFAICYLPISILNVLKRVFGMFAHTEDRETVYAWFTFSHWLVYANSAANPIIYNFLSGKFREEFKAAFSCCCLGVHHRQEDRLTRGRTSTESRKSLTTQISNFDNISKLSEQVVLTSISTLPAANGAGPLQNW
Description: Intracellular calcium measurement (FLIPR), orexin-A induced response in CHO cells expressing the human orexin-2 receptor. Format: cell-based. The following applies: 3 nM orexin-A as agonist. On the procedure:
(§1) The orexin receptor antagonistic activity of the compounds of formula (I) is determined in accordance with the following experimental method.
(§2) Intracellular Calcium Measurements:
(§3) Chinese hamster ovary (CHO) cells expressing the human orexin-1 receptor and the human orexin-2 receptor, respectively, are grown in culture medium (Ham F-12 with L-Glutamine) containing 300 μg/ml G418, 100 U/ml penicillin, 100 μg/ml streptomycin and 10% heat inactivated fetal calf serum (FCS). The cells are seeded at 20,000 cells/well into 384-well black clear bottom sterile plates (Greiner). The seeded plates are incubated overnight at 37° C. in 5% CO2.
(§4) Human orexin-A as an agonist is prepared as 1 mM stock solution in MeOH: water (1:1), diluted in HBSS containing 0.1% bovine serum albumin (BSA), NaHCO3: 0.375 g/l and 20 mM HEPES for use in the assay at a final concentration of 3 nM.
(§5) Antagonists are prepared as 10 mM stock solution in DMSO, then diluted in 384-well plates using DMSO followed by a transfer of the dilutions into in HBSS containing 0.1% bovine serum albumin (BSA), NaHCO3: 0.375 g/l and 20 mM HEPES. On the day of the assay, 50 μl of staining buffer (HBSS containing 1% FCS, 20 mM HEPES, NaHCO3: 0.375 g/l, 5 mM probenecid (Sigma) and 3 μM of the fluorescent calcium indicator fluo-4 AM (1 mM stock solution in DMSO, containing 10% pluronic) is added to each well. The 384-well cell-plates are incubated for 50 min at 37° C. in 5% CO2 followed by equilibration at rt for 30-120 min before measurement.
(§6) Within the Fluorescent Imaging Plate Reader (FLIPR2 or FLIPR Tetra, Molecular Devices), antagonists are added to the plate in a volume of 10 μl/well, incubated for 10 min and finally 10 μl/well of agonist is added. Fluorescence is measured for each well at 1 second intervals, and the height of each fluorescence peak is compared to the height of the fluorescence peak induced by 3 nM orexin-A with vehicle in place of antagonist. For each antagonist, the IC50 value (the concentration of compound needed to inhibit 50% of the agonistic response) is determined. The calculated IC50 values of the compounds may fluctuate depending on the daily cellular assay performance. Fluctuations of this kind are known to those skilled in the art.
(Calcium flux is commonly read through the fluorescence of an indicator in the cells.)

In a further experiment the target is T2, human orexin-1 receptor (Homo sapiens, UniProt O43613).
T2 construct: expressed in transfected cells; host or cells: CHO cells (selected with G418)
T2 sequence (O43613 1-425): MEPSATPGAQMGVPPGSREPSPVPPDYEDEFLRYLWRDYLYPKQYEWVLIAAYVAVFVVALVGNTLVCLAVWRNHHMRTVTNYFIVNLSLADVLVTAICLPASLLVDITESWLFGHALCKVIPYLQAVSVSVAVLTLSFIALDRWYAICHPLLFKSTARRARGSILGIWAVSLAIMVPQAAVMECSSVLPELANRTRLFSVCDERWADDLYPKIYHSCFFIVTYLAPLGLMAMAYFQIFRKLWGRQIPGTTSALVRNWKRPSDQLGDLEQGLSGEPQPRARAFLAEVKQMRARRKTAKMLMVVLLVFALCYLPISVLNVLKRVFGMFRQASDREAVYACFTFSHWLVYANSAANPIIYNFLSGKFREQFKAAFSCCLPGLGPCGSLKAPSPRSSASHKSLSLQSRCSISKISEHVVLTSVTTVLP
Description: Intracellular calcium measurement (FLIPR), orexin-A induced response in CHO cells expressing the human orexin-1 receptor. It counts as cell-based. The note with it: 3 nM orexin-A as agonist. On the procedure: as §1, §2, §3, §4, §5, §6

Where [1] appears, read: measured using FLIPR2, read-out: OX2 IC50.
[2] abbreviates: measured using FLIPR2, read-out: OX1 IC50.
The mark [3] stands for this setting: measured using FLIPR Tetra (footnote 1), read-out: OX2 IC50.
The mark [4] stands for this setting: measured using FLIPR Tetra (footnote 1), read-out: OX1 IC50.

Where two headings read alike, the source gives them in different places.

The term IC50 denotes the concentration that inhibits the measured activity by half. Take `Cc1ccc(-c2sc(C)nc2C(=O)N2[C@H](CNC(=O)c3c(C)nc4sccn34)C[C@@H]3CCC[C@@H]32)cc1` [Example 1, 6-Methyl-imidazo[2,1-b]thiazole-5-carboxylic acid [(1S,3S,5S)-2-(2-methyl-5-p-tolyl-thiazole-4-carbonyl)-2-azabicyclo[3.3.0]octane-3-ylmethyl]-amide]: the IC50 was found to be 40 nM at human orexin-2 receptor (setting [1]) and 17 nM on human orexin-1 receptor (setting [2]).

In the case of `Cc1nc2sccn2c1C(=O)NC[C@@H]1C[C@@H]2CCC[C@@H]2N1C(=O)c1nc(C2CC2)sc1-c1cccc(C(F)(F)F)c1` [Example 7, 6-Methyl-imidazo[2,1-b]thiazole-5-carboxylic acid {(1S,3S,5S)-2-[2-cyclopropyl-5-(3-trifluoromethyl-phenyl)-thiazole-4-carbonyl]-2-azabicyclo[3.3.0]octane-3-ylmethyl}-amide], the half-maximal inhibitory concentration (IC50) was found to be 95 nM on human orexin-2 receptor (setting [1]) and 18 nM on human orexin-1 receptor (setting [2]).

Regarding `Cc1nc(C(=O)N2[C@H](CNC(=O)c3noc4ccccc34)C[C@@H]3CCC[C@@H]32)c(-c2cccc(Cl)c2)s1` [Example 9, Benzo[d]isoxazole-3-carboxylic acid {(1S,3S,5S)-2-[5-(3-chloro-phenyl)-2-methyl-thiazole-4-carbonyl]-2-azabicyclo[3.3.0]octane-3-ylmethyl}-amide], the IC50 on human orexin-2 receptor (setting [1]) amounted to 283 nM; on human orexin-1 receptor (setting [2]), 275 nM.

Consider `Cc1nc(C(=O)N2[C@H](CNC(=O)c3cccc4c3CCO4)C[C@@H]3CCC[C@@H]32)c(-c2cccc(C(F)(F)F)c2)s1` [Example 16, 2,3-Dihydro-benzofuran-4-carboxylic acid {(1S,3S,5S)-2-[2-methyl-5-(3-trifluoromethyl-phenyl)-thiazole-4-carbonyl]-2-azabicyclo[3.3.0]octane-3-ylmethyl}-amide], for which the IC50 at human orexin-2 receptor (setting [3]) worked out at 12 nM; on human orexin-1 receptor (setting [4]) it was 11 nM.

Consider `Cc1nc(C(=O)N2[C@H](CNC(=O)c3cccc4c3CCO4)C[C@@H]3CCC[C@@H]32)c(-c2ccc(F)c(Br)c2)s1` [Example 19, 2,3-Dihydro-benzofuran-4-carboxylic acid {(1S,3S,5S)-2-[5-(3-bromo-4-fluoro-phenyl)-2-methyl-thiazole-4-carbonyl]-2-azabicyclo[3.3.0]octane-3-ylmethyl}-amide], for which the concentration for half-maximal inhibition (IC50) came out at 32 nM on human orexin-2 receptor (setting [3]) and 37 nM on human orexin-1 receptor (setting [4]).

Take `O=C(NC[C@@H]1C[C@@H]2CCC[C@@H]2N1C(=O)c1nc(C2CC2)sc1-c1ccccc1)c1cccc2c1CCO2` [Example 26, 2,3-Dihydro-benzofuran-4-carboxylic acid [(1S,3S,5S)-2-(2-cyclopropyl-5-phenyl-thiazole-4-carbonyl)-2-azabicyclo[3.3.0]octane-3-ylmethyl]-amide]: the 50% inhibitory concentration (IC50) stood at 41 nM on human orexin-2 receptor (setting [3]) and 48 nM on human orexin-1 receptor (setting [4]).
